Measurements published in article PMC7281206, “Cysteine Cathepsins Inhibition Affects Their Expression and Human Renal Cancer Cell Phenotype” (Cancers, 2020).
*: point of attachment. CH2F = FC*

Assays:
Assay type in all cases: cell-based, human
SNAIL1 in A498 cells = experiment: SNAIL1 protein expression (western blot), A498; conditions: 72 h
Procedure: These properties could be the result of the modulation of the effectors controlling EMT, as previously shown in other tumor models. To test this hypothesis, the cells were treated with the inhibitors for 24, 48, and 72 h by changing the media every day, and they were tested for E-cadherin and SNAIL1 expression (Figure 6; detail information of western blots can be seen in Supplementary Figure S7). Figure 6 Effects of the peptides on E-cadherin and SNAIL1 protein expression: (a,b) protein expression of E-cadherin and SNAIL1 in 769-P and (c,d) A498 cells after 24, 48, and 72 h of treatment with the peptides. Data are represented as mean ± SD of at least three replicates. Significance was calculated through one-way ANOVA, followed by Dunnet’s test. Cells were seeded in RPMI containing 10% FBS and cultured for 24 h. Next, 30 µM of inhibitors were added to the culture medium and incubated for 24, 48, and 72 h. Control cells were treated with 0.01% DMSO. At all time points the samples were lysed in 50 mM Tri-HCl (pH 8.0), 100 mM NaCl, 0.5% NP-40, 1% Triton X-100, 1× protease inhibitor cocktail (ThermoFisher, Waltham, MA, USA). The 50 µg of protein lysates were separated by electrophoresis on a 12% SDS-PAGE gel and transferred to the PFDF membranes. […] After an additional wash (three times with PBS), reactive bands were detected by chemiluminescence (Bio-Rad, Irvine, CA, USA). […]

769-P cells = experiment: Cell viability/proliferation (MTT), 769-P; conditions: 2.5–250 μM; for Cell viability: 72 h; for Effect on cell proliferation: within 48 h
Procedure: Figure 3 The effect of the peptide inhibitors on human 769-P and A498 renal cancer cell proliferation and proteolytic activity. (a) 769-P and (b) A498 cells were treated with increasing doses of Ac-PLVE-FMK (red bars) and Ac-VLPE-FMK (blue bars) (2.5–250 μM). Cell proliferation was measured after 24, 48, and 72 h via MTT (3-(4,5-dimethylthiazol-2-yl)-2,5-diphenyltetrazolium bromide) assay. Data represent the mean (±S.D.) of at least three independent experiments, each performed in triplicate. (c) Fluorescence microscopy evaluation and quantification of the cell proteolytic activity in 769-P and (d) A498 cells towards the fluorogenic substrate Ac-PLVQ-AMC in the absence or presence of Ac-PLVE-FMK and Ac-VLPE-FMK. The cells were seeded in a 96-well plate and after exposure to the peptides for 30 min prior incubation with the fluorescent substrate Ac-PLVQ-AMC for 10 min. Data are expressed as mean (±S.D.), and significance was calculated through one-way ANOVA followed by Dunnet’s test. * = p < 0.05, ** = p < 0.01, *** = p < 0.001.
The human renal cancer cell line lines […], A498 were obtained from Dr. Vadim Pokrovsky (purchased from American Type Culture Collection). The cells were cultured in RPMI 1640, supplemented with 10% fetal bovine serum and 1% mixture of antibiotics penicillin-streptomycin (all from Gibco, Waltham, MA, USA) at 5% CO2 and 37 °C in a humidified chamber. Cells were grown to confluence and harvested by trypsinization, using a 0.25 mg/mL trypsin/EDTA solution (ThermoFisher, Carlsbad, CA, USA) and resuspended in the fresh culture medium. Viable cells were enumerated on the Countess II FL Automated Cell Counter (ThermoFisher, Waltham, MA, USA), following Trypan Blue staining. The cell lines were tested for mycoplasma contamination regularly, using the Molecular Probes™ MycoFluor Mycoplasma Detection Kit (ThermoFisher, Waltham, MA, USA).
The cell number was evaluated by counting viable cells using the MTT (3-(4,5-dimethylthiazol-2-yl)-2,5-diphenyltetrazolium bromide) colorimetric assay. A total of 2 × 10^4 cells/well were seeded on independent 96-well plates for each time point (0, 24, 48, and 72 h), with five replicates and treated with two inhibitors (2.5–250 μM). Then, 10 µL of the MTT reagent was added to each well, and cells were incubated for another 5 h. Next, the absorbance value was measured using a CLARIOstar® Plus plate reader (BMG Labtech, Ortenberg, Germany) at 490 nm. Triplicate wells were assayed, and S.D.s were determined.

LAMP-1 in 769-P cells = experiment: LAMP-1 expression (confocal microscopy), 769-P; conditions: 20 μM
Procedure: Figure 7 Effect of the peptides on LAMP-1 protein expression: (a) Western blotting analysis of LAMP-1 after treatment with PLVE and VLPE (20 μM) for 24, 48, and 72 h in 769-P cells. (b) Confocal microscopy evaluation of LAMP-1 expression after 48 and 72 h of treatment with PLVE and VLPE (20 μM) in 769-P cells. (c) Western blotting analysis of LAMP-1 after treatment with PLVE and VLPE (20 μM) for 24, 48, and 72 h in A498 cells. (d) Confocal microscopy evaluation of LAMP-1 expression after 48 and 72 h of treatment with PLVE and VLPE (20 μM) in A498 cells. Data are represented as mean ± SD of at least three replicates. Significance was calculated through one-way ANOVA followed by Dunnet’s test. * = p < 0.05, ** = p < 0.01, *** = p < 0.001. The cells were treated for 48 and 72 h, then were fixed in 4% PFA/PBS for 15 min and permeabilized in 0.25% Triton®X-100 for 10 min. After blocking the non-specific sites in 2% BSA/PBS-T, the immunofluorescence was performed overnight with primary antibody anti-LAMP-1 (1:100, Abcam, Eugene, OR, USA) incubation, followed by incubation with the appropriate fluorophore-labeled secondary antibody Donkey anti-Rabbit IgG (H+L) ReadyProbes™, Alexa Fluor 488 (1:500; ThermoFisher, USA). The cells were then counterstained with nuclear dye DAPI and visualized under a fluorescent and/or confocal microscope (Olympus BX51, Shinjuku, Tokyo, Japan, and AxioObserver Z1, Zeiss, Oberkochen, Germany) using oil-immersion lenses.

[1] = test system: E-cadherin in 769-P cells; experiment: E-cadherin protein expression (western blot), 769-P
Procedure: These properties could be the result of the modulation of the effectors controlling EMT, as previously shown in other tumor models. To test this hypothesis, the cells were treated with the inhibitors for 24, 48, and 72 h by changing the media every day, and they were tested for E-cadherin and SNAIL1 expression (Figure 6; detail information of western blots can be seen in Supplementary Figure S7).  Figure 6 Effects of the peptides on E-cadherin and SNAIL1 protein expression: (a,b) protein expression of E-cadherin and SNAIL1 in 769-P and (c,d) A498 cells after 24, 48, and 72 h of treatment with the peptides. Data are represented as mean ± SD of at least three replicates. Significance was calculated through one-way ANOVA, followed by Dunnet’s test. Cells were seeded in RPMI containing 10% FBS and cultured for 24 h. Next, 30 µM of inhibitors were added to the culture medium and incubated for 24, 48, and 72 h. Control cells were treated with 0.01% DMSO. At all time points the samples were lysed in 50 mM Tri-HCl (pH 8.0), 100 mM NaCl, 0.5% NP-40, 1% Triton X-100, 1× protease inhibitor cocktail (ThermoFisher, Waltham, MA, USA). The 50 µg of protein lysates were separated by electrophoresis on a 12% SDS-PAGE gel and transferred to the PFDF membranes. The expression of cysteine Cts, LAMP-1, E-cadherin, and SNAIL1 were identified by a reaction with specific primary antibodies (CtsB-Ab190077, Abcam, UK; CtsL-Ab95154, Abcam, UK; CtsW Ab191083; LAMP-1- Ab24170, Abcam, UK; SNAIL1 Ab216347, Abcam, UK and e-cadherin-612131, BD Sciences Franklin Lakes, NJ, USA) which were resuspended in 5% non-fat milk in PBST (all Cts 1:3000, LAMP-1, SNAIL1 and E-cadherin 1:1000) and incubated O/N. The next day, the membranes were washed three times with PBST and incubated for 1 h with secondary antibodies (P-GAR Iss (Goat pAb to rabbit IgG (HRP), Abcam, UK or Rabbit Ab to mouse, Abcam, UK; both 1:5000) in 5% non-fat milk in PBST. After an additional wash (three times with PBS), reactive bands were detected by chemiluminescence (Bio-Rad, Irvine, CA, USA). As a loading control, the membranes were incubated with a polyclonal anti-tubulin antibody (1:5000; Ab52866, Abcam, UK) identically.

Substance | SNAIL1 protein expression (SNAIL1 in A498 cells) | Cell viability (769-P cells) | Effect on cell proliferation (769-P cells) | LAMP-1 expression (confocal) (LAMP-1 in 769-P cells; 48 h) | LAMP-1 expression (confocal) (LAMP-1 in 769-P cells; 72 h) | E-cadherin protein expression ([1]; 72 h) | E-cadherin protein expression ([1]; first 48 h)
Ac-PLVE-CH2F [Ac-PLVE-FMK] | dropped to values more similar to the control | cell viability increased, reaching values not significantly different from the control cells | cytostatic properties on both cell lines only within 48 h of treatment | increased LAMP-1 expression | the content of LAMP-1 decreased towards control levels | further increased in 769P cells | increased the protein expression of E-cadherin in the first 48 h in both the cell lines
Ac-VLPE-CH2F [Ac-VLPE-FMK] | dropped to values more similar to the control | cell viability increased, reaching values not significantly different from the control cells | cytostatic properties on both cell lines only within 48 h of treatment | increased LAMP-1 expression | the content of LAMP-1 decreased towards control levels | further increased in 769P cells | increased the protein expression of E-cadherin in the first 48 h in both the cell lines
